Experimental data taken from patent US8772480B2, “Inhibitors of PI3 kinase and/or mTOR” (priority 2009, dated 2014).

Legend:
[1] = molecular target: ProfilerPro Kinase Selectivity Assay Kit kinases (Homo sapiens, UniProt P43405); assay type: biochemical; details: SYK; 1 μM compound concentration
Procedure: (§1) Compounds were profiled using a LabChip® EZ Reader II platform and a ProfilerPro Kinase Selectivity Assay Kit (Caliper Lifesciences Inc., Hopkinton, Mass.). Compounds were tested at a concentration of 1 M in duplicate, with mean data reported as percent of control (POC).

[2] = molecular target: ProfilerPro Kinase Selectivity Assay Kit kinases (Homo sapiens, UniProt O14757); assay type: biochemical; details: CHK1; 1 μM compound concentration
Procedure: as §1

[3] = molecular target: ProfilerPro Kinase Selectivity Assay Kit kinases (Homo sapiens, UniProt Q05513); assay type: biochemical; details: PKC zeta; 1 μM compound concentration
Procedure: as §1

[4] = molecular target: ProfilerPro Kinase Selectivity Assay Kit kinases (Homo sapiens, UniProt P17612); assay type: biochemical; details: PKA alpha; 1 μM compound concentration
Procedure: as §1

[5] = molecular target: ProfilerPro Kinase Selectivity Assay Kit kinases (Homo sapiens, UniProt P36888); assay type: biochemical; details: FLT3; 1 μM compound concentration
Procedure: as §1

[6] = molecular target: ProfilerPro Kinase Selectivity Assay Kit kinases (Homo sapiens, UniProt P31749); assay type: biochemical; details: AKT1; 1 μM compound concentration
Procedure: as §1

[7] = molecular target: ProfilerPro Kinase Selectivity Assay Kit kinases (Homo sapiens, UniProt P08069); assay type: biochemical; details: IGF1R; 1 μM compound concentration
Procedure: as §1

[8] = molecular target: ProfilerPro Kinase Selectivity Assay Kit kinases (Homo sapiens, UniProt Q9BZL6); assay type: biochemical; details: PKD2; 1 μM compound concentration
Procedure: as §1

[9] = molecular target: ProfilerPro Kinase Selectivity Assay Kit kinases (Homo sapiens, UniProt P07948); assay type: biochemical; details: LYN; 1 μM compound concentration
Procedure: as §1

[10] = molecular target: ProfilerPro Kinase Selectivity Assay Kit kinases (Homo sapiens, UniProt Q13976); assay type: biochemical; details: PKGa2; 1 μM compound concentration
Procedure: as §1

[11] = molecular target: ProfilerPro Kinase Selectivity Assay Kit kinases (Homo sapiens, UniProt Q06187); assay type: biochemical; details: BTK; 1 μM compound concentration
Procedure: as §1

[12] = molecular target: ProfilerPro Kinase Selectivity Assay Kit kinases (Homo sapiens, UniProt P28482); assay type: biochemical; details: ERK2; 1 μM compound concentration
Procedure: as §1

[13] = molecular target: ProfilerPro Kinase Selectivity Assay Kit kinases (Homo sapiens, UniProt P06239); assay type: biochemical; details: LCK; 1 μM compound concentration
Procedure: as §1

[14] = molecular target: ProfilerPro Kinase Selectivity Assay Kit kinases (Homo sapiens, UniProt P23443); assay type: biochemical; details: p70S6K; 1 μM compound concentration
Procedure: as §1

[15] = molecular target: ProfilerPro Kinase Selectivity Assay Kit kinases (Homo sapiens, UniProt O95819); assay type: biochemical; details: HGK; 1 μM compound concentration
Procedure: as §1

[16] = molecular target: ProfilerPro Kinase Selectivity Assay Kit kinases (Homo sapiens, UniProt P12931); assay type: biochemical; details: SRC; 1 μM compound concentration
Procedure: as §1

[17] = molecular target: ProfilerPro Kinase Selectivity Assay Kit kinases (Homo sapiens, UniProt O14965); assay type: biochemical; details: AURORA A; 1 μM compound concentration
Procedure: as §1

[18] = molecular target: ProfilerPro Kinase Selectivity Assay Kit kinases (Homo sapiens, UniProt P27361); assay type: biochemical; details: ERK1; 1 μM compound concentration
Procedure: as §1

[19] = molecular target: ProfilerPro Kinase Selectivity Assay Kit kinases (Homo sapiens, UniProt O96017); assay type: biochemical; details: CHK2; 1 μM compound concentration
Procedure: as §1

[20] = molecular target: ProfilerPro Kinase Selectivity Assay Kit kinases (Homo sapiens, UniProt P35968); assay type: biochemical; details: KDR; 1 μM compound concentration
Procedure: as §1

[21] = molecular target: ProfilerPro Kinase Selectivity Assay Kit kinases (Homo sapiens, UniProt P04049); assay type: biochemical; details: cRAF; 1 μM compound concentration
Procedure: as §1

[22] = molecular target: ProfilerPro Kinase Selectivity Assay Kit kinases (Homo sapiens, UniProt P06241); assay type: biochemical; details: FYN; 1 μM compound concentration
Procedure: as §1

[23] = molecular target: ProfilerPro Kinase Selectivity Assay Kit kinases (Homo sapiens, UniProt O00141); assay type: biochemical; details: SGK1; 1 μM compound concentration
Procedure: as §1

[24] = molecular target: ProfilerPro Kinase Selectivity Assay Kit kinases (Homo sapiens, UniProt P24941); assay type: biochemical; details: CDK2; 1 μM compound concentration
Procedure: as §1

[25] = molecular target: ProfilerPro Kinase Selectivity Assay Kit kinases (Homo sapiens, UniProt Q9P1W9); assay type: biochemical; details: PIM2; 1 μM compound concentration
Procedure: as §1

[26] = molecular target: ProfilerPro Kinase Selectivity Assay Kit kinases (Homo sapiens, UniProt P00519); assay type: biochemical; details: ABL; 1 μM compound concentration
Procedure: as §1

[27] = molecular target: ProfilerPro Kinase Selectivity Assay Kit kinases (Homo sapiens, UniProt Q13177); assay type: biochemical; details: PAK2; 1 μM compound concentration
Procedure: as §1

[28] = molecular target: ProfilerPro Kinase Selectivity Assay Kit kinases (Homo sapiens, UniProt P11362); assay type: biochemical; details: FGFR1; 1 μM compound concentration
Procedure: as §1

[29] = molecular target: ProfilerPro Kinase Selectivity Assay Kit kinases (Homo sapiens, UniProt Q9P0L2); assay type: biochemical; details: MARK1; 1 μM compound concentration
Procedure: as §1

[30] = molecular target: ProfilerPro Kinase Selectivity Assay Kit kinases (Homo sapiens, UniProt O75582); assay type: biochemical; details: MSK1; 1 μM compound concentration
Procedure: as §1

[31] = molecular target: human mutant B-raf (HuBraf V600E) (Homo sapiens (Human), UniProt P15056, V600E); details: at 10 μM compound concentration; POC = 100 − percent inhibition
Chain of human mutant B-raf (HuBraf V600E) (P15056 whole entry V600E): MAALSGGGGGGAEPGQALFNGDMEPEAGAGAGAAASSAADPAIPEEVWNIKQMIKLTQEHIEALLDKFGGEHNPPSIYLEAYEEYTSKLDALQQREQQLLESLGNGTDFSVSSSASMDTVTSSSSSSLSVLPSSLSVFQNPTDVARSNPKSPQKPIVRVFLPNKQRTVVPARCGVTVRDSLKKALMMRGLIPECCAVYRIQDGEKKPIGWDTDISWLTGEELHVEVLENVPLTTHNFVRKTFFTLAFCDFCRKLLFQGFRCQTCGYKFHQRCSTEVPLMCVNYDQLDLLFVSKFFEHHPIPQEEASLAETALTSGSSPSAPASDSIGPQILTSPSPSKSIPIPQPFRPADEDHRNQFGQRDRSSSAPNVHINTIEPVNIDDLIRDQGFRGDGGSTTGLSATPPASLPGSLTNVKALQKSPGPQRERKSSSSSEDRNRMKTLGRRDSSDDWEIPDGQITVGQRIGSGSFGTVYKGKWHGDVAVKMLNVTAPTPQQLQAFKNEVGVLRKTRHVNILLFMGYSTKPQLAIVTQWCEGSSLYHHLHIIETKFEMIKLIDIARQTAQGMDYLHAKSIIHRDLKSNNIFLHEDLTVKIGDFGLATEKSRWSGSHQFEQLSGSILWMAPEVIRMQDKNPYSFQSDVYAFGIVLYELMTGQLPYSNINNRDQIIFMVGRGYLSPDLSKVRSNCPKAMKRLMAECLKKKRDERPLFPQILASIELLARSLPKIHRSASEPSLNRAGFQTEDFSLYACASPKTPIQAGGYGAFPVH

Chain of ProfilerPro Kinase Selectivity Assay Kit kinases (Homo sapiens, UniProt Q06187) (Q06187 2-659 limits assumed): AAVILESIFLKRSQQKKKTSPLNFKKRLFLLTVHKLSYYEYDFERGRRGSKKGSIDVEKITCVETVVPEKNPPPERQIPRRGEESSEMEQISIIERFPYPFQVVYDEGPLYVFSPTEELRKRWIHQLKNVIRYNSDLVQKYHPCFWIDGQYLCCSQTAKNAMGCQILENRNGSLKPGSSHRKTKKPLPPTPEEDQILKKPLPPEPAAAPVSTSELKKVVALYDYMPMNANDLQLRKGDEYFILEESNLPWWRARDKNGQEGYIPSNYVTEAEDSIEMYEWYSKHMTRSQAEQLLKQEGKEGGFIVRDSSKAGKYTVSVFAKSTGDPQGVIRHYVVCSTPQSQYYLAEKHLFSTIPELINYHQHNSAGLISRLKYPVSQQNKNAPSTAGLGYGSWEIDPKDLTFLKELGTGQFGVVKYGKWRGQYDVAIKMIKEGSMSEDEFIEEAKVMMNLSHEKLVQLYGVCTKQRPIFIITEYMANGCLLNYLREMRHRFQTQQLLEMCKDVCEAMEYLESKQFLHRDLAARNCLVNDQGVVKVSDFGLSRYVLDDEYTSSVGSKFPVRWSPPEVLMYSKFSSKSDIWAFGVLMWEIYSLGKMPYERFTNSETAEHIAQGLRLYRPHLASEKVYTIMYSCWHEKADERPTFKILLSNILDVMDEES
Chain of ProfilerPro Kinase Selectivity Assay Kit kinases (Homo sapiens, UniProt O95819) (O95819 2-1239 limits assumed): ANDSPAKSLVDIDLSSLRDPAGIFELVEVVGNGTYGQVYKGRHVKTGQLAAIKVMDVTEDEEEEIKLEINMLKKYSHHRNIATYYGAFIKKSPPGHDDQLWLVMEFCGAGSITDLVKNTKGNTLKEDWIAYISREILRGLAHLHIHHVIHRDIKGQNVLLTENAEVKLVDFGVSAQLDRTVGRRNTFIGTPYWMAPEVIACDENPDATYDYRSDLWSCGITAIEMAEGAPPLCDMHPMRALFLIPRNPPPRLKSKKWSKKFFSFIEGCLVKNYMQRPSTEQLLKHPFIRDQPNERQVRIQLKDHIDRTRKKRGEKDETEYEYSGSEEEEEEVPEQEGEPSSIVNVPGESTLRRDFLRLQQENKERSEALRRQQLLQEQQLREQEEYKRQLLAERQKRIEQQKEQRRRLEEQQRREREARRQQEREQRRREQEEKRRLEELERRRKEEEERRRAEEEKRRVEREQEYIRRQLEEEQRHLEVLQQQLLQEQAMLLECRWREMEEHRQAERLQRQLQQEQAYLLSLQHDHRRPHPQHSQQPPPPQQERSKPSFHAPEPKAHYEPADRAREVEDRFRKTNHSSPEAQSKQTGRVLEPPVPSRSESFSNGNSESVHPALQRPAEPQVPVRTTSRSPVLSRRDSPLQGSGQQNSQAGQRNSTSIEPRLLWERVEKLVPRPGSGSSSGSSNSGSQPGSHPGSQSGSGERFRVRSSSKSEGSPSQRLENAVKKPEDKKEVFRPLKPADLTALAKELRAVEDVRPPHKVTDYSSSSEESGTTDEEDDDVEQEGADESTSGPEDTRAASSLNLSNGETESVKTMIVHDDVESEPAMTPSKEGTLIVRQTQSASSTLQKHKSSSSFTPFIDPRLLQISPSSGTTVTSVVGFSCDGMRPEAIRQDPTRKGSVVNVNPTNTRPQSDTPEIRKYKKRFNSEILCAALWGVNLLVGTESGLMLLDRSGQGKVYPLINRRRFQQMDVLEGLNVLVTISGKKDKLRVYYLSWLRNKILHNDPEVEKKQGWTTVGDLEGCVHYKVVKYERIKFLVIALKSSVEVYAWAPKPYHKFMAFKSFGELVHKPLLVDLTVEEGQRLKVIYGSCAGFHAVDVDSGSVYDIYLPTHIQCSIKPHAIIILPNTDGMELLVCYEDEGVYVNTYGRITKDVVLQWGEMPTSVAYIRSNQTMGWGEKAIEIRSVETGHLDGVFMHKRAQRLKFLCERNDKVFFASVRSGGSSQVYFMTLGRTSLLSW
Chain of ProfilerPro Kinase Selectivity Assay Kit kinases (Homo sapiens, UniProt P35968) (P35968 20-1356 limits assumed): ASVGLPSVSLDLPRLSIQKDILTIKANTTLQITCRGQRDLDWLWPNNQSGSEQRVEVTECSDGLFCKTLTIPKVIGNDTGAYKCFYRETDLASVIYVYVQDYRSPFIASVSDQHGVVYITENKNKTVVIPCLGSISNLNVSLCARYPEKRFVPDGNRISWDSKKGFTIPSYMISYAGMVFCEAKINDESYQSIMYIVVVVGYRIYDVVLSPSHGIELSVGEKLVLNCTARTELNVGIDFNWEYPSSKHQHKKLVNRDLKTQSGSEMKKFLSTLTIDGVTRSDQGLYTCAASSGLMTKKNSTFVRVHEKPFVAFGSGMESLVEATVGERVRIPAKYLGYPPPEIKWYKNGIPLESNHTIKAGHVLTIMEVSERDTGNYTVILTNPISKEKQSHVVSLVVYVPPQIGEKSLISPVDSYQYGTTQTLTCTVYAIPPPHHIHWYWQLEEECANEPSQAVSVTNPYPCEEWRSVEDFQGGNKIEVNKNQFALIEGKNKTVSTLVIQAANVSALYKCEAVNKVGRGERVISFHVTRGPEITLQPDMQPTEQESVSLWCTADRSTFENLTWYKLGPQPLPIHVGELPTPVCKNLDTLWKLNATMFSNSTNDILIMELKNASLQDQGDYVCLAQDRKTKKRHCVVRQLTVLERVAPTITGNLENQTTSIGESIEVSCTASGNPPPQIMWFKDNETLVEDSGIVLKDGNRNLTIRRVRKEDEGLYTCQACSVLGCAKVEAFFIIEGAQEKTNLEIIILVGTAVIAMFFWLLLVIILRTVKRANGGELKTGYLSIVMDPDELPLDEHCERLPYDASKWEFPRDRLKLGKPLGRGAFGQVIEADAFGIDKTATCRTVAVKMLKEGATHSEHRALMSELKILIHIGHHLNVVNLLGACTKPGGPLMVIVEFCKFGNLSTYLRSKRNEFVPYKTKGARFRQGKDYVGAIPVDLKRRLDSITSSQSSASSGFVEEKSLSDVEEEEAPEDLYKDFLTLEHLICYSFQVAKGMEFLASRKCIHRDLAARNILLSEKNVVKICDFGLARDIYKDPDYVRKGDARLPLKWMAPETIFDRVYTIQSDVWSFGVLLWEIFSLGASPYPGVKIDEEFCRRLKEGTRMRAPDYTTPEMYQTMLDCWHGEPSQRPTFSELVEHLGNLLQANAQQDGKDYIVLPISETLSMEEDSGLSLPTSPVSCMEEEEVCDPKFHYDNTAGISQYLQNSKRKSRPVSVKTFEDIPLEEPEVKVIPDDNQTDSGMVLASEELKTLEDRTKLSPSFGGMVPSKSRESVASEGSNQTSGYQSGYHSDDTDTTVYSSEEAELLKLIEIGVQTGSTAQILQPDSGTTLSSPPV
Chain of ProfilerPro Kinase Selectivity Assay Kit kinases (Homo sapiens, UniProt P07948) (P07948 2-512 limits assumed): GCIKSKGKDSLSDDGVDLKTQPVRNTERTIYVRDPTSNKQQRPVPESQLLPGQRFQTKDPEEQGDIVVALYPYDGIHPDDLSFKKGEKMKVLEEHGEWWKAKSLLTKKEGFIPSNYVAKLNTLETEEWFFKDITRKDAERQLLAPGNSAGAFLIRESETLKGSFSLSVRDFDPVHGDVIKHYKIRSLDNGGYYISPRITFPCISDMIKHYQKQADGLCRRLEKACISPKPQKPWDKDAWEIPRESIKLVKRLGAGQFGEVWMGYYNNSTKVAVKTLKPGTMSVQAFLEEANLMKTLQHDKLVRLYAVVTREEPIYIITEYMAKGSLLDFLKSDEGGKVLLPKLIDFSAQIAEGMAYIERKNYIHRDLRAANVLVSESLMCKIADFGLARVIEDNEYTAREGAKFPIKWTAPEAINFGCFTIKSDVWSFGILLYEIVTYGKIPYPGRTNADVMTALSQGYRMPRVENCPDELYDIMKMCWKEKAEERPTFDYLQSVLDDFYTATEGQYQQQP
Chain of ProfilerPro Kinase Selectivity Assay Kit kinases (Homo sapiens, UniProt P06241) (P06241 2-537 limits assumed): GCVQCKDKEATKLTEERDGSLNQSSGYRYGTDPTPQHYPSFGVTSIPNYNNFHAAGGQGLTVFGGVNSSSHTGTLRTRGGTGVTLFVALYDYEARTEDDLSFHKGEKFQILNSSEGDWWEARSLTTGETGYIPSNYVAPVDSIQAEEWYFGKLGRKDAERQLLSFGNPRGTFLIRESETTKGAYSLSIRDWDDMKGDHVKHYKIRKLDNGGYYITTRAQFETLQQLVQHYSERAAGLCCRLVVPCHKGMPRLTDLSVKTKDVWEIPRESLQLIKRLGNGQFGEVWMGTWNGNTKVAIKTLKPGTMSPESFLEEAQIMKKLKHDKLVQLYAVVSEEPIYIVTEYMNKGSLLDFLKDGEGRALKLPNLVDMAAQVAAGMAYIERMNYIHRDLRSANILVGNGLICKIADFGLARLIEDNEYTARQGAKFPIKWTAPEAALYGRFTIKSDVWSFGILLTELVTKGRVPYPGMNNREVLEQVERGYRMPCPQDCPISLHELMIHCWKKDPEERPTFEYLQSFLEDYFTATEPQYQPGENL

SMILES | POC (Percent of control) SYK [1] | POC (Percent of control) CHK1 [2] | POC (Percent of control) PKC zeta [3] | POC (Percent of control) PKA alpha [4] | POC (Percent of control) FLT3 [5] | POC (Percent of control) AKT1 [6] | POC (Percent of control) IGF1R [7] | POC (Percent of control) PKD2 [8] | POC (Percent of control) LYN [9] | POC (Percent of control) PKGa2 [10] | POC (Percent of control) BTK [11] | POC (Percent of control) ERK2 [12] | POC (Percent of control) LCK [13] | POC (Percent of control) p70S6K [14] | POC (Percent of control) HGK [15] | POC (Percent of control) SRC [16] | POC (Percent of control) AURORA A [17] | POC (Percent of control) ERK1 [18] | POC (Percent of control) CHK2 [19] | POC (Percent of control) KDR [20] | also measured
CCc1cnc(Nc2ccc(OC)nc2)c(-c2nc(C)nc3[nH]cnc23)c1 [Example 74, 5-ethyl-N-(6-methoxypyridin-3-yl)-3-(2-methyl-9H-purin-6-yl)pyridin-2-amine] | 97 POC | 101 POC | 94 POC | 102 POC | 122 POC | 109 POC | 93 POC | 99 POC | 97 POC | 92 POC | 99 POC | 101 POC | 98 POC | 98 POC | 94 POC | 99 POC | 102 POC | 99 POC | 98 POC | 97 POC | POC (Percent of control) cRAF [21]: 101 POC; POC (Percent of control) FYN [22]: 104 POC; POC (Percent of control) SGK1 [23]: 108 POC; POC (Percent of control) CDK2 [24]: 96 POC; POC (Percent of control) PIM2 [25]: 92 POC; POC (Percent of control) ABL [26]: 103 POC; POC (Percent of control) PAK2 [27]: 94 POC; POC (Percent of control) FGFR1 [28]: 99 POC; POC (Percent of control) MARK1 [29]: 111 POC; POC (Percent of control) MSK1 [30]: 98 POC; Mutant B-raf HTRF Assay POC Mean n = 2 [31]: 111% of Control (POC)
Cc1nc(N)nc(-c2cccnc2Nc2cccc(O)c2)n1 [Example 23, 3-(3-(4-Amino-6-Methyl-1,3,5-Triazin-2-yl)Pyridin-2-Ylamino)Phenol] | 110 POC | 105 POC | 102 POC | 99 POC | 106 POC | 103 POC | 101 POC | 104 POC | 101 POC | 87 POC | 100 POC | 103 POC | 97 POC | 112 POC | 99 POC | 99 POC | 112 POC | 104 POC | 101 POC | 105 POC | POC (Percent of control) cRAF [21]: 108 POC; POC (Percent of control) FYN [22]: 96 POC; POC (Percent of control) SGK1 [23]: 102 POC; POC (Percent of control) CDK2 [24]: 106 POC; POC (Percent of control) PIM2 [25]: 99 POC; POC (Percent of control) ABL [26]: 97 POC; POC (Percent of control) PAK2 [27]: 96 POC; POC (Percent of control) FGFR1 [28]: 99 POC; POC (Percent of control) MARK1 [29]: 97 POC; POC (Percent of control) MSK1 [30]: 112 POC; Mutant B-raf HTRF Assay POC Mean n = 2 [31]: 100% of Control (POC)
Cc1nc(N)nc(-c2cc(CN3CCN(S(C)(=O)=O)CC3)cnc2Nc2cccc(O)c2)n1 [Example 30, 3-(3-(4-Amino-6-Methyl-1,3,5-Triazin-2-yl)-5-((4-(Methyl Sulfonyl)Piperazin-1-yl)Methyl)Pyridin-2-Ylamino)Phenol] | 106 POC | 96 POC | 110 POC | 100 POC | 99 POC | 102 POC | 80 POC | 98 POC | 100 POC | 98 POC | 97 POC | 102 POC | 102 POC | 97 POC | 96 POC | 103 POC | 100 POC | 93 POC | 106 POC | 102 POC | POC (Percent of control) cRAF [21]: 95 POC; POC (Percent of control) FYN [22]: 97 POC; POC (Percent of control) SGK1 [23]: 93 POC; POC (Percent of control) CDK2 [24]: 101 POC; POC (Percent of control) PIM2 [25]: 99 POC; POC (Percent of control) ABL [26]: 98 POC; POC (Percent of control) PAK2 [27]: 105 POC; POC (Percent of control) FGFR1 [28]: 99 POC; POC (Percent of control) MARK1 [29]: 98 POC; POC (Percent of control) MSK1 [30]: 90 POC; Mutant B-raf HTRF Assay POC Mean n = 2 [31]: 92% of Control (POC)
